Source: US20110065628A1, “Medication Combinations for the Treatment of Alcoholism and Drug Addiction” (UNIVERSITY OF VIRGINIA PATENT FOUNDATION, priority 2007, published 2011)
Structures can show the parent of a compound that is named as a salt.

What was measured:
[1] = system: alcohol-preferring (P) rats; test: Combined topiramate and naltrexone on alcohol consumption; assay type: in vivo
Description: FIG. 8 graphically illustrates the combined effect of topiramate and naltrexone on alcohol consumption in alcohol-preferring (P) rats. Rats received either vehicle, topiramate at 5 mg/kg, topiramate at 10 mg/kg, naltrexone at 1/mg/kg and topiramate at 5 mg/kg, naltrexone at 1/mg/kg and topiramate at 10 mg/kg, or naltrexone at 1 mg/kg. Each data point represents the mean (±SE) of 8 rats as a change from baseline.
No significant differences were observed following vehicle injection. Data are plotted as change from baseline consumption, and each data point represents a mean (±SE) of 8 rats.

[2] = system: alcohol-preferring (P) rats; test: 24-hour-access two-bottle choice alcohol consumption, topiramate, ondansetron, naltrexone; assay type: in vivo
Description: FIG. 10, comprising 5 panels—FIGS. 10A to 10E, graphically illustrates the combined effect of topiramate (10 mg/kg, IP), ondansetron (0.001 mg/kg, IP), and naltrexone (1 mg/kg, IP) on alcohol consumption in alcohol-preferring (P) rats. 10A—Topiramate alone; 10B—Ondansetron alone; 10C—Vehicle; 10D—Topiramate+Ondansetron; 10E—Topiramate+Ondansetron+Naltrexone. Data are plotted across seven consecutive sessions, which include a 3-day baseline period, the test session in which the ondansetron, topiramate, and naltrexone injection was administered, and the three sessions that followed the test session. Each data point represents a mean (±SE) of at least six rats. The ordinate represents ethanol intake in g/kg and the abscissa represents session number.
The effects of ondansetron, topiramate, and naltrexone, medications shown to be efficacious in treating alcohol-dependent humans, on measures of alcohol dependence were determined in animal models in order to determine whether these medications may produce additive effects when combined. The experiments examined their ability to modulate total consumption under a 24-hour-access two-bottle choice procedure wherein rats had unlimited access to alcohol solutions (10%) and water. […]

[3] = system: individuals who take topiramate; conditions: cited from earlier work
[4] = system: alcohol-dependent men and women; conditions: topiramate up to 300 mg per day, 12 weeks; cited from earlier work
[5] = system: patients with alcoholism (DSM III-R); test: 12-week outpatient placebo-controlled ritanserin trial with Cognitive Behavioral Therapy; assay type: in vivo, human; conditions: ritanserin 2.5 mg or 5 mg, 12 weeks
Description: FIG. 5 graphically illustrates the effects of treatment with Ritanserin in conjunction with Cognitive Behavioral Therapy. The ordinate represents the mean number of drinks since the last visit and the abscissa indicates the time period of assessment in the study (in weeks). Subjects were treated with 2.5 mg Ritanserin ([…]), 5.0 mg Ritanserin ? or received placebo (▴).
In this study, we examined the efficacy of ritanserin on alcohol consumption in a 12-week, outpatient, placebo-controlled clinical trial. This study overlapped in time and recruitment effort with the ondansetron study described above. Therefore, our research group has the expertise to conduct multiple treatment studies simultaneously. Fifty-four patients from our center who met DSM III-R criteria for alcoholism participated and were randomized to receive placebo, 2.5 mg, or 5 mg of ritanserin. All patients received standardized manual driven Cognitive Behavioral Therapy for alcoholism. Cognitive Behavioral Therapy was conducted by counselors with extensive experience with behavioral treatments, and over 500 therapy hours were logged. […] There was no within time effect nor group interaction. Similarly, there was no difference in craving between the treatment groups.

alcoholics (EOA and LOA) = test: 11-week double-blind ondansetron trial with weekly Cognitive Behavioral Therapy; assay type: in vivo, human; conditions: for Drinks/Day / Drinks/Drinking Day: at endpoint; for Drinks/Day: placebo 3.30; for Drinks/Drinking Day: placebo 6.90
Excerpt: It was hypothesized herein that the drinking outcomes of EOA, compared with LOA, would be more improved by the selective serotonin antagonist, ondansetron. EOA differ from LOA by having greater serotonergic abnormality, an earlier age of onset, and antisocial behaviors. Thus, EOA may be especially responsive to treatment with a selective serotonergic agent.
The design was as follows: 321 alcoholics (EOA=161; LOA=160; mean age 40.6 years; 70.5% male, and 78.6% white) received one lead in week of single-blind placebo followed by 11 weeks of double-blind outpatient treatment using a 2×4 factorial design which examined age of onset (EOA vs. LOA) and medication dose (placebo, or ondansetron 1, 4, or 16 μg/kg b.i.d) combined with weekly standardized group Cognitive Behavioral Therapy. Efficacy measures were: 1) Self reported drinking (Drinks/Day, Drinks/Drinking Day, Percent Days Abstinent, and Total Days Abstinent/study week), and 2) plasma Carbohydrate Deficient Transferrin level (CDT).

EOA and LOA alcoholics = conditions: EOA compared with LOA; 1, 4, 16 μg/kg twice daily, particularly 4 μg/kg; cited from earlier work
[6] = system: alcohol consumption (8% w/v) in rhesus monkeys; test: Naltrexone effect on alcohol drinking, fixed ratio schedule, 3 hour sessions; assay type: in vivo; conditions: increasing doses of naltrexone 0.1, 0.3, 1.0, 3.0 g/kg; three non food deprived rhesus monkeys
Description: FIG. 3 graphically illustrates the effects of Naltrexone on alcohol consumption in non-human primates (rhesus monkeys). Naltrexone was administered at 0.1 (∘), 0.3 ([…]), 1.0 (□) or 3.0 (▪) […]. The ordinate represents cumulative deliveries as percent change from baseline. The abscissa represents time in 10 minute blocks.
During these 3 hour sessions, both water and alcohol were concurrently available.

[7] = system: patients with alcohol and nicotine dependence; test: Open-label 8 week naltrexone study with coping skills therapy; assay type: in vivo, human; conditions: naltrexone 50 mg/day, 8 weeks
Excerpt: In an open-label study, we evaluated the efficacy of naltrexone, an opioid antagonist, in the treatment of alcohol dependence. Since up to 92% of alcoholics are also co-dependent on nicotine, our cohort included dually dependent individuals. […] From a local newspaper advertisement, we enrolled 10 subjects (6 males and 4 females; aged 40±2.56 years) into the study. All patients met DSM III-R criteria for both alcohol and nicotine dependence. Patients were instructed that the goal of treatment was abstinence by the end of the study. Patients received naltrexone (50 mg/day) in unmarked capsules with a riboflavin tracer for an 8 week period. Weekly attendance included combined coping skills therapy for alcohol and nicotine dependence, nursing visits, and completion of rating scales. […] Drop-out rate at 30% was similar to that observed in medication trials for alcoholism. This study supports the clinical evidence that naltrexone is a useful adjunct to Cognitive Behavioral Therapy for the treatment of alcoholism. Naltrexone's effects on cigarette smoking appears small but may warrant further exploration.

[8] = system: individuals in alcohol trials; conditions: cited from earlier work
[9] = EOA, ondansetron 1 μg/kg b.i.d, p<0.05
[10] = EOA, ondansetron 4 μg/kg b.i.d, p<0.05
[11] = N=321, 88 received the 4 μg/kg dose

CC1(C)O[C@@H]2[C@@H](CO[C@@]3(COS(N)(=O)=O)OC(C)(C)O[C@@H]23)O1 [topiramate, 2,3:4,5-Bis-O-(1-methylethylidene)-beta-D-fructopyranose sulfamate]
alcohol consumption, change from baseline ([1]; topiramate alone, 10 mg/kg intraperitoneally, effect not yet significant): only modestly decreased alcohol consumption | decrease in alcohol consumption from baseline ([2]; topiramate alone 10 mg/kg intraperitoneally (FIG. 10A)): 12%±8% | cognitive impairment, reported rate ([3]; general population): 2.4% | cognitive impairment, occurrence rate ([3]; substance abuse field): about 18.7% | craving vs. placebo [4]: significantly less craving | days of abstinence vs. placebo [4]: significantly more days of abstinence | drinks per day, drinking days, drinks per drinking day vs. placebo [4]: significantly fewer drinks per day, drinking days, and drinks per drinking day

Cc1nc2sccn2c(=O)c1CCN1CCC(=C(c2ccc(F)cc2)c2ccc(F)cc2)CC1 [ritanserin]
alcohol consumption [5]: no clinically significant effect | craving [5]: no clinically significant effect

Cc1nccn1CC1CCc2c(c3ccccc3n2C)C1=O (stereo not shown) [ondansetron, 9-methyl-3-[(2-methyl-1H-imidazol-1-yl)methyl]-1,2,3,9-tetrahydrocarbazol-4-one]
Drinks/Day (alcoholics (EOA and LOA); [9]): 1.89 | Drinks/Drinking Day (alcoholics (EOA and LOA); [9]): 4.75 | mean log CDT ratio between endpoint and enrollment (alcoholics (EOA and LOA); EOA, ondansetron 1 μg/kg b.i.d, placebo +0.11, p<0.05): −0.17 | Drinks/Day (alcoholics (EOA and LOA); [10]): 1.56 | Drinks/Drinking Day (alcoholics (EOA and LOA); [10]): 4.28 | Drinking outcomes in LOA (alcoholics (EOA and LOA); LOA): not improved substantially | nausea (alcoholics (EOA and LOA); [11]): nausea was not reported | side-effects vs. placebo (alcoholics (EOA and LOA); [11]): no side-effect was reported more often than placebo | Total Days Abstinent/study week (alcoholics (EOA and LOA); ondansetron 4 μg/kg b.i.d, placebo 5.92, p<0.05): 6.74 | Percent Days Abstinent (alcoholics (EOA and LOA); ondansetron 4 μg/kg b.i.d, placebo 50.20, p<0.05): 70.10 | alcohol consumption ([2]; ondansetron alone 0.001 mg/kg intraperitoneally (FIG. 10B)): did not affect alcohol consumption on its own | drinking (EOA and LOA alcoholics): significant reductions in drinking

O=C1CC[C@@]2(O)[C@H]3Cc4ccc(O)c5c4[C@@]2(CCN3CC2CC2)[C@H]1O5 [naltrexone, 17-(Cyclopropylmethyl)-4,5 a-epoxy-3,14-dihydroxymorphinan-6-one hydrochloride]
alcohol consumption [6]: dose-dependent decreases | nicotine withdrawal symptoms [7]: No patient reported clinically significant nicotine withdrawal symptoms | alcohol consumption ([7]; before 3.29±2.16 drinks/day, p<0.05): 2.16±1.88 drinks/day | smoking ([7]; before 21.10±5.57 cigarettes/day): 15.93±3.09 cigarette/day | alcohol consumption, change from baseline ([1]; naltrexone alone, 1 mg/kg intraperitoneally): did not affect alcohol consumption on its own | rate of subject withdrawal due to naltrexone induced nausea ([8]; Croop and Colleagues, 570 received naltrexone): 15% | individuals unable to tolerate naltrexone ([8]; naltrexone dose of 50 mg/day): about 15%
